Test results reported in paper PMC12040169 (PLOS Biology, 2025).

Test: in vitro
Conditions: human, hela cells, % viability

Going from `O=C(NCc1ccc2occc2c1)c1ccc2[nH]ccc2c1` [CBK149055] to `O=C(NCc1ccc2c(c1)OCO2)c1ccc(S(=O)(=O)N2CCCC2)cc1` [CBK263590], the viability at 28.5 h, 10 µM rises from 89.7% to 108%.

First: N#Cc1ccccc1COC(=O)c1cc(-c2ccc(/C=C/c3[nH]c(=O)[nH]c(=O)c3[N+](=O)[O-])o2)ccc1Cl [CBK268888]
Second: Cc1ccc2oc(-c3ccc(C)c(NC(=O)c4cc([N+](=O)[O-])ccc4Cl)c3)nc2c1 [CBK263055]
The viability at 28.5 h, 10 µM of the first is higher: 111% for the first, 94.5% for the second.

First: CSCC(=O)N1C[C@@H]2C[C@H](C1)c1c(-c3cncnc3)ccc(=O)n1C2 [CBK289195]
Second: COc1ccc(-c2cc3cccnc3n2CC(=O)N2CCCC2)cc1 [CBK285379]
The viability at 28.5 h, 10 µM of the first is lower: 79.4% for the first, 84.3% for the second.

Going from `Nc1ncnc2c1ncn2C1OC(C(=O)O)C(O)C1O` (centres unmarked) [CBK262922] to `O=C(O)c1ccc(NC(=O)c2nccnc2C(=O)O)cc1` [CBK260916], the viability at 28.5 h, 10 µM falls from 99.9% to 97.7%.

Compared with `CC(C)c1ccccc1NC(=O)NCCc1cccs1` [CBK043938], `COc1cc(NC(=O)NCCc2cccs2)cc(OC)c1OC` [CBK043347] is lower in viability at 28.5 h, 10 µM: 97.9% for the first, 94.6% for the second.

Compared with `Cc1nn(C)c(N2CCNCC2)c1NC(=O)c1ccccc1` [CBK050257T], `O=C(NCCN1CCNCC1)c1ccccn1` [CBK278241C] is higher in viability at 28.5 h, 10 µM: 99% for the first, 108% for the second.

Going from `COc1ccc(CN2CCN(c3nccnc3NS(C)(=O)=O)CC2)cc1` [CBK084273] to `CCCCOc1ccc(S(=O)(=O)n2ccc3cc(N4CCNCC4)ccc32)cc1` [CBK001315C], the viability at 28.5 h, 10 µM falls from 88.7% to 37.9%.

Going from `COCC(=O)Nc1ccc([C@@H](O)[C@H]2COCC(=O)N2C)cc1` [CBK289058] to `COc1ccc(NC(=O)c2sc(Cl)nc2C)cc1` [CBK057902], the viability at 28.5 h, 10 µM falls from 106% to 97.1%.

First: O=C(CSc1nnc(SCc2cccc3ccccc23)s1)Nc1ccc(F)c(Cl)c1 [CBK267574]
Second: Cc1ccc(-c2nnc(CNC(=O)Cc3ccccc3F)o2)s1 [CBK284644]
The viability at 28.5 h, 10 µM of the first is higher: 92.1% for the first, 78.4% for the second.

Going from `O=C(Cn1cc(C(=O)NCC2(c3ccccc3)CCCC2)ccc1=O)NC1CCCC1` [CBK286040] to `O=C(O)COCC(=O)N1CCCC(c2nc(-c3ccccc3)c3ccccn23)C1` (centres unmarked) [CBK046806], the viability at 28.5 h, 10 µM falls from 104% to 86.1%.

Compared with `CC(C)c1ccc(OCC(=O)NNC(=O)c2ccco2)c(Br)c1` [CBK267224], `O=C(COc1ccc2ccccc2c1Br)NCCN1CCOCC1` [CBK267391] is higher in viability at 28.5 h, 10 µM: 86.7% for the first, 89.7% for the second.

First: O=C1NC(=O)C2(CCN(C(=O)c3csc4c3CCCC4)C2)N1 (centres unmarked) [CBK305533]
Second: Cc1cccc2c3c([nH]c12)C1(CCN(CC2CC2)C1)NCC3 (centres unmarked) [CBK039520]
The viability at 28.5 h, 10 µM of the first is lower: 89.8% for the first, 95.8% for the second.

First: O=C(c1ccccc1)c1ccc2[nH]nnc2c1 [CBK091608]
Second: CC(OC(=O)c1ccc2nccnc2c1)c1cccc([N+](=O)[O-])c1 (centres unmarked) [CBK297901]
The viability at 28.5 h, 10 µM of the first is higher: 94.2% for the first, 78.5% for the second.

Going from `CC(C)(C)OC(=O)N1CCC(OCc2cn(-c3ccc(S(C)(=O)=O)cc3)nn2)CC1` [CBK149478] to `Cc1cc(OCC2CCN(C(=O)OC(C)(C)C)CC2)ccc1Br` [CBK175091], the viability at 28.5 h, 10 µM rises from 98.1% to 108%.

Compared with `O=C(O)CC1SC(Nc2cccc(Cl)c2)=NC1=O` (centres unmarked) [CBK131683], `CN(C)CC(C)(C)CNC(=O)c1cnc2cc(Cl)ccc2c1O` [CBK107357] is lower in viability at 28.5 h, 10 µM: 105% for the first, 97% for the second.

Going from `Cc1cc(C)c(CNC(=O)C2CC(=O)N(Cc3ccccn3)C2)cn1` (centres unmarked) [CBK304673] to `CC(NC(=O)C1CC(=O)N(Cc2ccccn2)C1)c1ccc(F)cc1` (centres unmarked) [CBK304552], the viability at 28.5 h, 10 µM rises from 89.8% to 97.1%.

First: CC(c1ccccc1)c1nc2cnccn2c1NC(C)(C)C (centres unmarked) [CBK283533]
Second: CC(C)CNc1ccc(-c2cccc(N(C)C)c2)cn1 [CBK037603]
The viability at 28.5 h, 10 µM of the first is higher: 92.3% for the first, 76.9% for the second.

Going from `O=C(c1ccco1)N1CCC[C@@H]1Cn1c(=O)oc2ccccc21` [CBK284538] to `CCOC(=O)C1CCCN(C(=O)Cn2c(C)nc3ccccc3c2=O)C1` (centres unmarked) [CBK306150], the viability at 28.5 h, 10 µM falls from 87.6% to 77.9%.

First: COc1ccc(Cl)cc1C1(CNC(=O)C2CCC(N)C2)CCOCC1 (centres unmarked) [CBK305523]
Second: O=C(CC1CCCCC1)Nc1ccc(Cl)nc1 [CBK091349]
The viability at 28.5 h, 10 µM of the first is higher: 85.9% for the first, 83.5% for the second.

Going from `CCN(CC)CCNC(=O)/C(=N\O)c1ccccc1` [CBK288408] to `CCOc1ccc(C(=O)CCNCC(=O)O)cc1` [CBK286657], the viability at 28.5 h, 10 µM falls from 106% to 94.4%.

First: CN1CCN(c2nc3ccccn3c(=O)c2/C=C2\SC(=S)N(CCc3ccccc3)C2=O)CC1 [CBK263131]
Second: O=C(Nc1cccc(N2CCCC2=O)c1)c1ccccc1Nc1ccccc1 [CBK297729]
The viability at 28.5 h, 10 µM of the first is higher: 110% for the first, 85.8% for the second.

First: c1ccc(COc2ccc(-c3cc(Nc4ccc5[nH]ccc5c4)ncn3)cc2)cc1 [CBK090857]
Second: O=C(CNS(=O)(=O)c1ccc(Oc2ccccc2)cc1)Nc1ccc(F)cc1 [CBK042229]
The viability at 28.5 h, 10 µM of the first is higher: 111% for the first, 104% for the second.

`O=C(Nc1ccn(C23CC4CC(CC(C4)C2)C3)n1)c1ccco1` [CBK288023] and `CC(Cn1cncn1)C(=O)N1CCc2sccc2C1C` (centres unmarked) [CBK282080] are the same in viability at 28.5 h, 10 µM: 106% for the first, 106% for the second.

Compared with `Cc1ccc2nc(-c3ccc4c(c3)CC(C)N4S(C)(=O)=O)cn2c1` (centres unmarked) [CBK285184], `Cc1ncccc1COC(=O)N1c2ccc(F)cc2CCC1C` (centres unmarked) [CBK200139] is higher in viability at 28.5 h, 10 µM: 79.4% for the first, 92.2% for the second.

Going from `CCCCCCN(CCN1CCOCC1)C(=O)Nc1cc(C)on1` [CBK305147] to `O=C(c1cc(F)c(F)cc1F)N1CCC2(CCN(CCN3CCOCC3)C2)C1` (centres unmarked) [CBK132145C], the viability at 28.5 h, 10 µM rises from 84.7% to 102%.

Compared with `CC(C)[C@H](CO)Nc1cncc(-c2cccc(N(C)C)c2)n1` [CBK065547], `O=c1[nH]c2ncc(-c3ccoc3)nc2n1Cc1cccs1` [CBK064647] is higher in viability at 28.5 h, 10 µM: 81.9% for the first, 90.3% for the second.

Going from `Cc1cc(C)n(C2CCN(Cc3cn(C)c4cc(F)ccc34)CC2)n1` [CBK281806] to `O=C(NC1CCCc2c1cnn2-c1ccc(F)cc1)C1CC1` (centres unmarked) [CBK283928], the viability at 28.5 h, 10 µM falls from 112% to 111%.

Going from `CC(c1ccc(S(C)(=O)=O)cc1)N(C)C(=O)COc1ccc2ccccc2c1` (centres unmarked) [CBK296738] to `OCCCc1nc2ccccc2n1CCOc1ccccc1` [CBK297728], the viability at 28.5 h, 10 µM falls from 103% to 97.8%.

Going from `CCc1ccc(-n2cc(-c3ccccn3)nn2)cc1` [CBK113137] to `OCCn1ncc2c(NCc3ccc(-n4cccn4)nc3)ncnc21` [CBK306326], the viability at 28.5 h, 10 µM falls from 106% to 87.8%.

First: Cc1n[n+]2c(C(=O)Nc3ccc(S(=O)(=O)Nc4nccs4)cc3)c(C)[n-]n2c1[N+](=O)[O-] [CBK293983]
Second: Cc1ccc(C(=O)Nc2nc3ccc4nc(C)sc4c3s2)cc1 [CBK287305]
The viability at 28.5 h, 10 µM of the first is lower: 83.2% for the first, 91.8% for the second.

Compared with `COc1ccc2c(c1)CCC1CN(C)N=C21` (centres unmarked) [CBK010890], `Cc1nn(CC(=O)N2CCCCC2)c(=O)c2cc3ccsc3n12` [CBK284078] is lower in viability at 28.5 h, 10 µM: 100% for the first, 91% for the second.

Compared with `CC(=O)Nc1ccc(S(=O)(=O)N2CCC(N3CCOCC3)CC2)cc1` [CBK264653G], `CC(C)(CC(=O)O)CC(=O)Nc1cc(S(=O)(=O)N2CCCC2)ccc1Cl` [CBK296702] is lower in viability at 28.5 h, 10 µM: 116% for the first, 95.4% for the second.

In the case of `Cc1noc(C)c1NC(=O)c1c(C)noc1C` [CBK200305], the viability at 28.5 h, 10 µM is reported as 96.4%.
